Measurements published in patent US5688957A, “[(3"-thioxacyclohex-1"-enyl)]-but-3'-ene-1'-ynyl]aryl and [(3"-thioxacyclohex-1"-enyl)]-but-3'-ene-1'-ynyl]heteroaryl carboxylic acids and esters having retinoid-like biological activity” (Allergan, priority 1995, dated 1997).

Tested on: ornithine decarboxylase (ODC)
Assay: inhibition of TPA induction of ornithine decarboxylase (ODC) activity
Assay type: in vivo
Conditions: for IC80: IC80 column; for IC60: concentration which results in 60% inhibition
Source text: The retinoid-like activity of these compounds is confirmed through the classic measure of retinoic acid activity involving the effects of retinoic acid on ornithine decarboxylase. The original work on the correlation between retinoic acid and decrease in cell proliferation was done by Verma & Boutwell, Cancer Research, 1977, 37,2196-2201. That reference discloses that ornithine decarboxylase (ODC) activity increased precedent to polyamine biosynthesis. It has been established elsewhere that increases in polyamine synthesis can be correlated or associated with cellular proliferation. Thus, if ODC activity could be inhibited, cell hyperproliferation could be modulated. Although all causes for ODC activity increases are unknown, it is known that 12-0-tetradecanoylphorbol-13-acetate (TPA) induces ODC activity. Retinoic acid inhibits this induction of ODC activity by TPA. […] The results of this assay for certain exemplary compounds of the invention are shown in Table 1 below, wherein either the IC80 or IC60 value for each exemplary compound is indicated in namolar concentration units. (As is known in the art, the IC60 value is that concentration of the compound (in nanomols) which results in 60% inhibition.)

CC1=C(/C=C/C#Cc2ccc(C(=O)O)cn2)C(C)(C)CCS1 [Compound 4, 6-[4'-(2",6",6"-Trimethyl-3"-thioxacyclohex-1"-enyl)-but-3'(E) -ene-1'-ynyl]nicotinic Acid]
IC80: 33.6 nM

CC1=C(/C=C/C#Cc2ccc(C(=O)O)cc2)C(C)(C)CCS1 [Compound 2, 4-[4'-(2",6",6"-Trimethyl-3"-thioxacyclohex-1"-enyl) -but-3'(E)-ene-1'-ynyl]benzoic Acid]
IC60: 1.4 nM

CCOC(=O)c1ccc(C#C/C=C/C2=C(C)SCCC2(C)C)cc1 [Compound 1, Ethyl 4-[4'-(2",6",6",-Trimethyl-3"-thioxacyclohex-1"-enyl)-but-3'(E)-ene-1'-ynyl]benzoate]
IC60: 3.8 nM

CCOC(=O)c1ccc(C#C/C=C/C2=C(C)SCCC2(C)C)nc1 [Compound 3, Ethyl 6-[4'-(2",6",6"-Trimethyl-3"-thioxacyclohex-1"-enyl)-but-3'(E)-ene-1'-ynyl]nicotinate]
IC80: 28 nM
